Calls of active or inactive are those of the source. The rule behind the calls is not given here.
Key:
Plasmodium falciparum [1] = test: Antimalarial activity against chloroquine-susceptible, pyrimethamine-resistant Plasmodium falciparum Malayan Camp infected in Aotus trivirgatus owl monkey model assessed as cure from parasite infection at >2.5 mg/kg, po qd for 7 days relative to control; assay type: functional
Plasmodium falciparum [2] = test: Antimalarial activity against pyrimethamine-sensitive Plasmodium falciparum Vietnam Oak Knoll infected in Aotus trivirgatus owl monkey model assessed as cure from parasite infection at 0.6 mg/kg, po qd for 7 days relative to control; assay type: functional
Plasmodium berghei [3] = test: Antimalarial activity against Plasmodium berghei infected in mouse assessed as increase in mean survival days of host at 1.25 mg/kg, sc administered 72 hrs after infection relative to control; assay type: functional; details: route subcutaneous
Plasmodium berghei [4] = test: Antimalarial activity against Plasmodium berghei infected in mouse assessed as disease cure from parasite infection at 160 mg/kg, sc administered 72 hrs after infection; assay type: functional, organism-based; parameters: dose 160 mg/kg
Plasmodium berghei [5] = test: Antimalarial activity against Plasmodium berghei infected in mouse assessed as increase in mean survival days of host at 2.5 mg/kg, sc administered 72 hrs after infection relative to control; assay type: functional; details: route subcutaneous
Plasmodium berghei [6] = test: Antimalarial activity against Plasmodium berghei infected in mouse assessed as disease cure from parasite infection at 40 mg/kg, sc administered 72 hrs after infection; assay type: functional, organism-based; parameters: dose 40 mg/kg
Plasmodium gallinaceum [7] = test: Antimalarial activity against sporozoite-induced Plasmodium gallinaceum infected in white leghorn chicken assessed as disease cure from parasite infection at 160 mg/kg, sc administered 72 hrs after infection; assay type: functional, organism-based; parameters: dose 160 mg/kg
Plasmodium berghei [8] = test: Antimalarial activity against Plasmodium berghei infected in mouse assessed as disease cure from parasite infection at 80 mg/kg, sc administered 72 hrs after infection; assay type: functional, organism-based; parameters: dose 80 mg/kg
Plasmodium berghei [9] = test: Antimalarial activity against Plasmodium berghei infected in mouse assessed as disease cure from parasite infection at 320 mg/kg, sc administered 72 hrs after infection; assay type: functional, organism-based; parameters: dose 320 mg/kg
Plasmodium gallinaceum [10] = test: Antimalarial activity against sporozoite-induced Plasmodium gallinaceum infected in white leghorn chicken assessed as disease cure from parasite infection at 40 mg/kg, sc administered 72 hrs after infection; assay type: functional, organism-based; parameters: dose 40 mg/kg
Plasmodium berghei [11] = test: Antimalarial activity against Plasmodium berghei infected in mouse assessed as increase in mean survival days of host at 10 mg/kg, sc administered 72 hrs after infection relative to control; assay type: functional; details: route subcutaneous
Plasmodium berghei [12] = test: Antimalarial activity against Plasmodium berghei infected in mouse assessed as increase in mean survival days of host at 40 mg/kg, sc administered 72 hrs after infection relative to control; assay type: functional; details: route subcutaneous
Plasmodium berghei [13] = test: Antimalarial activity against Plasmodium berghei infected in mouse assessed as increase in mean survival days of host at 20 mg/kg, sc administered 72 hrs after infection relative to control; assay type: functional; details: route subcutaneous
Plasmodium falciparum [14] = test: Antimalarial activity against chloroquine-susceptible, pyrimethamine-resistant Plasmodium falciparum Malayan Camp infected in Aotus trivirgatus owl monkey model assessed as cure from parasite infection at 0.39 to 5 mg/kg, po qd for 7 days relative to control; assay type: functional; details: dose mg/kg 0.39-5
Plasmodium berghei [15] = test: Antimalarial activity against Plasmodium berghei infected in mouse assessed as disease cure from parasite infection at 640 mg/kg, sc administered 72 hrs after infection; assay type: functional, organism-based; parameters: dose 640 mg/kg
Plasmodium gallinaceum [16] = test: Antimalarial activity against sporozoite-induced Plasmodium gallinaceum infected in white leghorn chicken assessed as disease cure from parasite infection at 320 mg/kg, sc administered 72 hrs after infection; assay type: functional, organism-based; parameters: dose 320 mg/kg
Plasmodium gallinaceum [17] = test: Antimalarial activity against sporozoite-induced Plasmodium gallinaceum infected in white leghorn chicken assessed as disease cure from parasite infection at 20 mg/kg, sc administered 72 hrs after infection; assay type: functional, organism-based; parameters: dose 20 mg/kg
Plasmodium falciparum [18] = test: Antimalarial activity against pyrimethamine-sensitive Plasmodium falciparum Vietnam Oak Knoll infected in Aotus trivirgatus owl monkey model assessed as cure from parasite infection at 0.098 to 1.56 mg/kg, po qd for 7 days relative to control; assay type: functional; details: dose mg/kg 0.098-1.56
Plasmodium gallinaceum [19] = test: Antimalarial activity against sporozoite-induced Plasmodium gallinaceum infected in white leghorn chicken assessed as disease cure from parasite infection at 80 mg/kg, sc administered 72 hrs after infection; assay type: functional, organism-based; parameters: dose 80 mg/kg
Plasmodium gallinaceum [20] = test: Antimalarial activity against trophozoite-induced Plasmodium gallinaceum infected in white leghorn chicken assessed as increase in mean survival days of host at 160 mg/kg, sc administered 72 hrs after infection relative to control; assay type: functional; details: route subcutaneous
Plasmodium berghei [21] = test: Antimalarial activity against Plasmodium berghei infected in mouse assessed as increase in mean survival days of host at 5 mg/kg, sc administered 72 hrs after infection relative to control; assay type: functional; details: route subcutaneous
Plasmodium gallinaceum [22] = test: Antimalarial activity against sporozoite-induced Plasmodium gallinaceum infected in white leghorn chicken assessed as increase in mean survival days of host at 10 mg/kg, sc administered 72 hrs after infection relative to control; assay type: functional; details: route subcutaneous
Plasmodium gallinaceum [23] = test: Antimalarial activity against sporozoite-induced Plasmodium gallinaceum infected in white leghorn chicken assessed as disease cure from parasite infection at 10 mg/kg, sc administered 72 hrs after infection; assay type: functional, organism-based; parameters: dose 10 mg/kg

Question: With Nc1nc(N)c2cc(Sc3cccc(C(F)(F)F)c3)ccc2n1 [WR-159412] as the molecule, how does the Activity (Plasmodium falciparum [1]) read?
Answer: Its Activity is greater than 50%.

Question: And the Activity (Plasmodium falciparum [2])?
Answer: The Activity was greater than 50%.

Question: And the MST (Plasmodium berghei [3])?
Answer: The MST was 0.5 days.

Question: What about the Activity (Plasmodium berghei [4]) of the same molecule?
Answer: Its Activity is “Active”.

Question: What about the MST (Plasmodium berghei [5]) of the same molecule?
Answer: Its MST is 2.7 days.

Question: And the Activity (Plasmodium berghei [6])?
Answer: The Activity was “Active”.

Question: And the Activity (Plasmodium gallinaceum [7])?
Answer: Its Activity is “Active”.

Question: What about the Activity (Plasmodium berghei [8]) of the same molecule?
Answer: The Activity was “Active”.

Question: What about the Activity (Plasmodium berghei [9]) of the same molecule?
Answer: The Activity was “Active”.

Question: What about the Activity (Plasmodium gallinaceum [10]) of the same molecule?
Answer: Its Activity is “Active”.

Question: And the MST (Plasmodium berghei [11])?
Answer: The MST was 9.1 days.

Question: What about the MST (Plasmodium berghei [12]) of the same molecule?
Answer: The MST was 14.9 days.

Question: And the MST (Plasmodium berghei [13])?
Answer: Its MST is 12.7 days.

Question: What about the Activity (Plasmodium falciparum [14]) of the same molecule?
Answer: The Activity was greater than 50%.

Question: And the Activity (Plasmodium berghei [15])?
Answer: The Activity was “Active”.

Question: And the Activity (Plasmodium gallinaceum [16])?
Answer: The Activity was “Active”.

Question: What about the Activity (Plasmodium gallinaceum [17]) of the same molecule?
Answer: Its Activity is “Active”.

Question: And the Activity (Plasmodium falciparum [18])?
Answer: Its Activity is greater than 50%.

Question: What about the Activity (Plasmodium gallinaceum [19]) of the same molecule?
Answer: Its Activity is “Active”.

Question: What about the MST (Plasmodium gallinaceum [20]) of the same molecule?
Answer: Its MST is 15.4 days.

Question: What about the MST (Plasmodium berghei [21]) of the same molecule?
Answer: Its MST is 8.7 days.

Question: What about the MST (Plasmodium gallinaceum [22]) of the same molecule?
Answer: Its MST is 7.3 days.

Question: What about the Activity (Plasmodium gallinaceum [23]) of the same molecule?
Answer: The Activity was “Active”.
